In the supplement of paper PMC10307832:

Key:
Experiment in all cases: relative viability (nuclei count vs DMSO), 5 days (fraction); higher = more cells survive
201T = test system: 201T
Summary of the method: (§1)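 Lung cancer cell lines in 1536-well plates got either a single drug or a fixed anchor-drug dose together with five library-drug doses (not always all listed) in √10 steps, by pin tool, on the day after seeding. Nuclei were counted after 5 days, and relative viability is the treated-to-vehicle ratio of nuclei counts. Values are medians of duplicate plates.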

EKVX = test system: EKVX
Summary of the method: as §1

NCI-H2023 = test system: NCI-H2023
Summary of the method: as §1

NCI-H727 = test system: NCI-H727
Summary of the method: as §1

EMC-BAC-2 = test system: EMC-BAC-2
Summary of the method: as §1

NCI-H1651 = test system: NCI-H1651
Summary of the method: as §1

LK-2 = test system: LK-2
Summary of the method: as §1

COR-L 105 = test system: COR-L 105
Summary of the method: as §1

HCC-15 = test system: HCC-15
Summary of the method: as §1

NCI-H322M = test system: NCI-H322M
Summary of the method: as §1

PC-3 [JPC-3] = test system: PC-3 [JPC-3]
Summary of the method: as §1

NCI-H838 = test system: NCI-H838
Summary of the method: as §1

HCC-44 = test system: HCC-44
Summary of the method: as §1

NCI-H460 = test system: NCI-H460
Summary of the method: as §1

CAL-12T = test system: CAL-12T
Summary of the method: as §1

NCI-H520 = test system: NCI-H520
Summary of the method: as §1

NCI-H358 = test system: NCI-H358
Summary of the method: as §1

LU99A = test system: LU99A
Summary of the method: as §1

NCI-H1563 = test system: NCI-H1563
Summary of the method: as §1

## Cc1cn(-c2cc(NC(=O)c3ccc(C)c(Nc4nccc(-c5cccnc5)n4)c3)cc(C(F)(F)F)c2)cn1 [Nilotinib] + Cc1nc(NC(=O)N2CCC[C@H]2C(N)=O)sc1-c1ccnc(C(C)(C)C(F)(F)F)c1 [Alpelisib] (partner 2 µM)
201T; first compound 0.003162 µM
  relative viability: 1.11
201T; first compound 0.01 µM
  relative viability: 1.09
201T; first compound 0.1 µM
  relative viability: 1.07
EKVX; first compound 0.001 µM
  relative viability: 0.813
EKVX; first compound 0.003162 µM
  relative viability: 1.13
EKVX; first compound 0.01 µM
  relative viability: 1.29
EKVX; first compound 0.03162 µM
  relative viability: 0.909
EKVX; first compound 0.1 µM
  relative viability: 1.02
NCI-H2023; first compound 0.001 µM
  relative viability: 0.513
NCI-H2023; first compound 0.003162 µM
  relative viability: 0.655
NCI-H2023; first compound 0.01 µM
  relative viability: 0.654
NCI-H2023; first compound 0.03162 µM
  relative viability: 0.558
NCI-H2023; first compound 0.1 µM
  relative viability: 0.478
NCI-H727; first compound 0.001 µM
  relative viability: 0.573
NCI-H727; first compound 0.01 µM
  relative viability: 0.719
NCI-H727; first compound 0.03162 µM
  relative viability: 0.456
NCI-H727; first compound 0.1 µM
  relative viability: 0.395
EMC-BAC-2; first compound 0.001 µM
  relative viability: 0.728
EMC-BAC-2; first compound 0.003162 µM
  relative viability: 0.893
EMC-BAC-2; first compound 0.01 µM
  relative viability: 0.883
EMC-BAC-2; first compound 0.03162 µM
  relative viability: 0.668
EMC-BAC-2; first compound 0.1 µM
  relative viability: 0.787
NCI-H1651; first compound 0.001 µM
  relative viability: 0.915
NCI-H1651; first compound 0.003162 µM
  relative viability: 1.15
NCI-H1651; first compound 0.01 µM
  relative viability: 1.41
NCI-H1651; first compound 0.03162 µM
  relative viability: 0.837
NCI-H1651; first compound 0.1 µM
  relative viability: 0.978
LK-2; first compound 0.001 µM
  relative viability: 1.16
LK-2; first compound 0.003162 µM
  relative viability: 0.966
LK-2; first compound 0.03162 µM
  relative viability: 1
LK-2; first compound 0.1 µM
  relative viability: 1.22
COR-L 105; first compound 0.001 µM
  relative viability: 0.905
COR-L 105; first compound 0.01 µM
  relative viability: 1.22
COR-L 105; first compound 0.03162 µM
  relative viability: 0.92
COR-L 105; first compound 0.1 µM
  relative viability: 0.917
HCC-15; first compound 0.001 µM
  relative viability: 0.824
HCC-15; first compound 0.003162 µM
  relative viability: 1.11
HCC-15; first compound 0.01 µM
  relative viability: 1.05
HCC-15; first compound 0.03162 µM
  relative viability: 0.727
HCC-15; first compound 0.1 µM
  relative viability: 0.616
NCI-H322M; first compound 0.001 µM
  relative viability: 0.882
NCI-H322M; first compound 0.003162 µM
  relative viability: 0.817
NCI-H322M; first compound 0.03162 µM
  relative viability: 0.72
NCI-H322M; first compound 0.1 µM
  relative viability: 0.866
PC-3 [JPC-3]; first compound 0.001 µM
  relative viability: 0.987
PC-3 [JPC-3]; first compound 0.003162 µM
  relative viability: 1.27
PC-3 [JPC-3]; first compound 0.01 µM
  relative viability: 1.26
PC-3 [JPC-3]; first compound 0.03162 µM
  relative viability: 1.05
PC-3 [JPC-3]; first compound 0.1 µM
  relative viability: 0.982
NCI-H838; first compound 0.001 µM
  relative viability: 1.06
NCI-H838; first compound 0.003162 µM
  relative viability: 1.31
NCI-H838; first compound 0.01 µM
  relative viability: 1.26
NCI-H838; first compound 0.1 µM
  relative viability: 1.09
HCC-44; first compound 0.001 µM
  relative viability: 0.708
HCC-44; first compound 0.003162 µM
  relative viability: 0.939
HCC-44; first compound 0.01 µM
  relative viability: 0.898
HCC-44; first compound 0.03162 µM
  relative viability: 0.59
HCC-44; first compound 0.1 µM
  relative viability: 0.74
NCI-H460; first compound 0.001 µM
  relative viability: 0.518
NCI-H460; first compound 0.003162 µM
  relative viability: 0.88
NCI-H460; first compound 0.01 µM
  relative viability: 0.936
NCI-H460; first compound 0.03162 µM
  relative viability: 0.312
NCI-H460; first compound 0.1 µM
  relative viability: 0.41
CAL-12T; first compound 0.003162 µM
  relative viability: 1.67
CAL-12T; first compound 0.01 µM
  relative viability: 1.92
CAL-12T; first compound 0.03162 µM
  relative viability: 0.653
CAL-12T; first compound 0.1 µM
  relative viability: 1.22
NCI-H520; first compound 0.001 µM
  relative viability: 0.793
NCI-H520; first compound 0.01 µM
  relative viability: 0.986
NCI-H520; first compound 0.03162 µM
  relative viability: 0.719
NCI-H520; first compound 0.1 µM
  relative viability: 1.03
NCI-H358; first compound 0.001 µM
  relative viability: 0.958
NCI-H358; first compound 0.003162 µM
  relative viability: 1.18
NCI-H358; first compound 0.01 µM
  relative viability: 0.999
NCI-H358; first compound 0.03162 µM
  relative viability: 0.686
NCI-H358; first compound 0.1 µM
  relative viability: 0.666
LU99A; first compound 0.001 µM
  relative viability: 0.495
LU99A; first compound 0.003162 µM
  relative viability: 0.531
LU99A; first compound 0.01 µM
  relative viability: 0.518
LU99A; first compound 0.03162 µM
  relative viability: 0.48
LU99A; first compound 0.1 µM
  relative viability: 0.377
NCI-H1563; first compound 0.001 µM
  relative viability: 0.738
NCI-H1563; first compound 0.003162 µM
  relative viability: 0.905
NCI-H1563; first compound 0.01 µM
  relative viability: 0.839
NCI-H1563; first compound 0.03162 µM
  relative viability: 0.849
NCI-H1563; first compound 0.1 µM
  relative viability: 0.79
